“And” between values parts separate entries of the source, which are not always exact repeats. Equal entries are not always repeated.
How the values were obtained:
Type in all cases: cell-based
[1] = test system: HepG2 cells; assay: MTT assay for cell proliferation and cytotoxicity, HepG2; parameters: key to Inhibitory rate: inhibition rate = 1 - mean A490 sample/mean A490 control (fraction); conditions: for IC50: HepG2, 48 h, MTT; for Inhibitory rate / ODtreated/ODcontrol: HepG2, fraction, per experiment; for Inhibition rate (16μM), 48 h, HepG2: preliminary screening, HepG2, 16 μM, mean±SD, unit not given
Method: (§1) HepG2, HeLa, MCF-7, and KYSE-30 cells were grown in a humidified incubator at 37°C with 5% CO2 in DMEM supplemented with 10% fetal bovine serum (FBS), […] streptomycin, and 100 U/mL penicillin.
(§2) When HepG2 cells reached 80% confluence, they were treated with 1 mL of trypsin and resuspended at a density of 10^5 cells/mL. Then, 100 μL of cell suspension was seeded into each well of a 96-well plate and incubated in a humidified atmosphere. The different concentrations of KJ-5 and KJ-12 (0, 1, 2, 4, 8, 16, and 32 μM) were added to each well, and the cells were further incubated for 48 h. Afterward, 20 μL of the MTT solution (5 mg/mL) was added to each well, and incubation was continued for another 4 h. The supernatant was discarded, and 200 μL of the DMSO solution was added to each well. The plate was shaken for 10 min in the dark. The absorbance values were measured at 490 nm using an enzyme-linked detector. The cell inhibition rate (%) was calculated using the following formula: (1-Mean A490 sample/Mean A490 control) × 100%.

[2] = test system: MCF-7 cells; assay: MTT assay for cell proliferation, MCF-7; parameters: key to Inhibitory rate / Inhibition rate: inhibition rate = 1 - mean A490 sample/mean A490 control (fraction); conditions: for Inhibition rate (16μM), 48 h, MCF-7: preliminary screening, MCF-7, 16 μM, mean±SD, unit not given
Method: as §1, §2

[3] = test system: KYSE-30 cells; assay: MTT assay for cell proliferation, KYSE-30; parameters: key to Inhibitory rate: inhibition rate = 1 - mean A490 sample/mean A490 control (fraction); conditions: for Inhibitory rate: KYSE-30, given as fraction; for Inhibition rate (16μM), 48 h, KYSE-30: preliminary screening, KYSE-30, 16 μM, mean±SD, unit not given
Method: as §1, §2

[4] = test system: HeLa cells; assay: MTT assay for cell proliferation, HeLa; parameters: key to Inhibitory rate: inhibition rate = 1 - mean A490 sample/mean A490 control (fraction); conditions: Hela; for Inhibitory rate / ODtreated/ODcontrol: fraction, per experiment; for Inhibition rate (16μM), 48 h, Hela: preliminary screening, mean±SD, unit not given
Method: as §1, §2

[5] = MCF-7, fraction, per experiment
[6] = given as fraction, second of three experiments
[7] = given as fraction, third of three experiments
[8] = KYSE-30, first of three experiments
[9] = KYSE-30, second of three experiments
[10] = KYSE-30, third of three experiments

Structure (SMILES)	Inhibitory rate [2, 5]	ODtreated/ODcontrol [2, 5]	Inhibitory rate [2, 6]	Inhibition rate [2, 7]	Inhibition rate (16μM), 48 h, MCF-7 [2]	ODtreated/ODcontrol ([2]; second of three experiments)	ODtreated/ODcontrol ([2]; third of three experiments)	IC50 [1] [µM]	Inhibitory rate [1]	ODtreated/ODcontrol [1]	Inhibition rate (16μM), 48 h, HepG2 [1]	ODtreated/ODcontrol [3, 8]	Inhibitory rate ([3]; first of three experiments)	Inhibitory rate ([3]; second of three experiments)	Inhibitory rate ([3]; third of three experiments)	ODtreated/ODcontrol [3, 9]	ODtreated/ODcontrol [3, 10]	Inhibition rate (16μM), 48 h, KYSE-30 [3]	Inhibitory rate [4]	ODtreated/ODcontrol [4]	further results
C[C@H]1CO[C@@H]2Cn3cc(C(=O)NCc4ccc(F)cc4F)c(=O)c(O)c3C(=O)N12 [Cabotegravir]	–	–	–	–	–	–	–	–	–	–	–	–	–	–	–	–	–	–	–	–	IC50 ([1]; Homo sapiens): > 50 µM
COc1c2n(cc(C(=O)Nc3cccc(-c4cn(-c5ccccc5C(F)(F)F)nn4)c3)c1=O)C[C@H]1OC[C@H](C)N1C2=O [KJ-1]	0.4609	0.5391	0.4929	0.3773	44.37±5.97	0.5071	0.6227	13.6 ± 1.09	0.48 and 0.4907 and 0.4342	0.52 and 0.5093 and 0.5658	46.83±3.00	0.5729	0.4271	0.3646	0.3875	0.6354	0.6125	39.31±3.16	0.456 and 0.4789 and 0.3414	0.544 and 0.5211 and 0.6586	Inhibition rate (16μM), 48 h, Hela [4]: 44.98±3.26
COc1c2n(cc(C(=O)Nc3cccc(-c4cn(-c5ccccc5F)nn4)c3)c1=O)C[C@H]1OC[C@H](C)N1C2=O [KJ-2]	0.5009	0.4991	0.4718	0.4501	47.43±2.55	0.5282	0.5499	25.3 ± 2.07	0.513 and 0.5093 and 0.5087	0.487 and 0.4907 and 0.4913	51.03±0.23	0.5011	0.4989	0.4582	0.3717	0.5418	0.6283	44.92±6.50	0.497 and 0.5116 and 0.431	0.503 and 0.4884 and 0.569	Inhibition rate (16μM), 48 h, Hela [4]: 47.99±4.29
COc1c2n(cc(C(=O)Nc3cccc(-c4cn(-c5ccccc5C)nn4)c3)c1=O)C[C@H]1OC[C@H](C)N1C2=O [KJ-3]	0.4113	0.5887	0.4254	0.3305	38.91±5.12	0.5746	0.6695	19.5 ± 0.5	0.4219 and 0.4728 and 0.4157	0.5781 and 0.5272 and 0.5843	43.68±3.13	0.6097	0.3903	0.2997	0.2805	0.7003	0.7195	32.35±5.86	0.3938 and 0.4133 and 0.3211	0.6062 and 0.5867 and 0.6789	Inhibition rate (16μM), 48 h, Hela [4]: 37.61±4.86
CCc1ccccc1-n1cc(-c2cccc(NC(=O)c3cn4c(c(OC)c3=O)C(=O)N3[C@@H](C)CO[C@@H]3C4)c2)nn1 [KJ-4]	0.4901	0.5099	0.5179	0.4059	47.13±5.83	0.4821	0.5941	15.1 ± 0.28	0.5128 and 0.512 and 0.5016	0.4872 and 0.488 and 0.4984	50.88±0.63	0.492	0.508	0.3924	0.4136	0.6076	0.5864	43.8±6.15	0.4763 and 0.5136 and 0.3886	0.5237 and 0.4864 and 0.6114	Inhibition rate (16μM), 48 h, Hela [4]: 45.95±6.42
COc1c2n(cc(C(=O)Nc3cccc(-c4cn(-c5cccc(F)c5)nn4)c3)c1=O)C[C@H]1OC[C@H](C)N1C2=O [KJ-6]	0.5139	0.4861	0.536	0.519	52.3±1.16	0.464	0.481	7.63 ± 1.2	0.6124 and 0.6058 and 0.5961	0.3876 and 0.3942 and 0.4039	60.48±0.82	0.3817	0.6183	0.5213	0.4998	0.4787	0.5002	54.65±6.31	0.6049 and 0.5572 and 0.5217	0.3951 and 0.4428 and 0.4783	Inhibition rate (16μM), 48 h, Hela [4]: 56.13±4.18
COc1ccccc1-n1cc(-c2cccc(NC(=O)c3cn4c(c(OC)c3=O)C(=O)N3[C@@H](C)CO[C@@H]3C4)c2)nn1 [KJ-7]	0.4361	0.5639	0.4406	0.3594	41.2±4.56	0.5594	0.6406	21.7 ± 1.07	0.4068 and 0.4092 and 0.416	0.5932 and 0.5908 and 0.584	41.07±0.48	0.5159	0.4841	0.4213	0.4377	0.5787	0.5623	44.77±3.26	0.3847 and 0.3789 and 0.3067	0.6153 and 0.6211 and 0.6933	Inhibition rate (16μM), 48 h, Hela [4]: 35.68±4.35
COc1c2n(cc(C(=O)Nc3cccc(-c4cn(-c5cccc(C(F)(F)F)c5)nn4)c3)c1=O)C[C@H]1OC[C@H](C)N1C2=O [KJ-8]	0.6331	0.3669	0.5745	0.558	58.85±3.95	0.4255	0.442	9.41 ± 1.3	0.6351 and 0.626 and 0.6586	0.3649 and 0.374 and 0.3414	63.99±1.68	0.3962	0.6038	0.6049	0.5814	0.3951	0.4186	59.67±1.33	0.6574 and 0.6919 and 0.6249	0.3426 and 0.3081 and 0.3751	Inhibition rate (16μM), 48 h, Hela [4]: 65.81±3.35
COc1c2n(cc(C(=O)Nc3cccc(-c4cn(-c5ccccc5OC(F)(F)F)nn4)c3)c1=O)C[C@H]1OC[C@H](C)N1C2=O [KJ-9]	0.7135	0.2865	0.7214	0.6147	68.32±5.95	0.2786	0.3853	5.06 ± 0.06	0.8207 and 0.8024 and 0.7986	0.1793 and 0.1976 and 0.2014	80.72±1.18	0.3517	0.6483	0.6765	0.5914	0.3235	0.4086	63.87±4.34	0.7654 and 0.7384 and 0.7732	0.2346 and 0.2616 and 0.2268	Inhibition rate (16μM), 48 h, Hela [4]: 75.9±1.83

Source: article PMC10590056, “Design and synthesis of cabotegravir derivatives bearing 1,2,3-triazole and evaluation of anti-liver cancer activity” (Frontiers in Pharmacology, 2023)
